Data set [1] concerns the target T1, C-C chemokine receptor type 5 (Homo sapiens, UniProt P51681). In words: biochemical. The data set is classed as cell-based, CHO.
Target sequence in this assay (P51681 whole entry): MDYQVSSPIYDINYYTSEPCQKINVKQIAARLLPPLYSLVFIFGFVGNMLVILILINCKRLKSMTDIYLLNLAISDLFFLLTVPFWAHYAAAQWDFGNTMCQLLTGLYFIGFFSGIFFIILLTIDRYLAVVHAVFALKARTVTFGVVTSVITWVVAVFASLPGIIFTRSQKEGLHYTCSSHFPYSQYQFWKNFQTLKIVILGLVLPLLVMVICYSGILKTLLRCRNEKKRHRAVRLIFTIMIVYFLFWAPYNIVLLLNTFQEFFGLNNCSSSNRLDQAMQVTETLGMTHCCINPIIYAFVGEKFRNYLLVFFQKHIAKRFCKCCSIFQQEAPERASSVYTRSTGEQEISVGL
Data set [2] is described as follows: Inhibition (CIC90) of a single HIV-1 (BAL) infection cycle in HeLa Magi cells expressing both CXCR4 and CCR5 receptors over a 48 h period. The data set is classed as functional. The settings on record: Homo sapiens.
In data set [3] the target is T1, C-C chemokine receptor type 5. Description: Displacement of [125I]-labeled MIP-1alpha from the C-C chemokine receptor type 5 expressed on CHO cell membranes. The data set is classed as cell-based. For orientation: Loss of bound radioactivity is the signal in a displacement assay; it reports binding, not function.
Target sequence in this assay (P51681 whole entry): as above
Data set [4] has the same target. Description: Concentration that inhibits the entry of HIV-1 in to peripheral blood mononuclear cells (PBMCs) via the antagonism of CCR5 receptor. The data set is classed as functional.
Target sequence in this assay (P51681 whole entry, looked up): as the sequence (P51681 whole entry) above
Data set [5] can be described thus: Plasma clearance rate was determined for the compound in rat. The settings on record: read-out: Clp. The data set is classed as ADME, organism-based.
The nature of data set [6]: Half-life period was determined for the compound in rat. The data set is classed as ADME, organism-based. The settings on record: in vivo.

Each structure is given as a SMILES string.

What is called IC50 is the midpoint of a concentration-inhibition curve. High values mean weaker potency in that assay, low ones greater potency in that assay. The term IC90 denotes the concentration needed for an effect of 90%. A low value points to greater potency. `O=C(O)CCc1ccc(CCCC2(O)CCN(C[C@H]3CN(CC4CCCCC4)C[C@@H]3c3ccccc3)CC2)cc1`: the 50% inhibitory concentration (IC50) in data set [1] amounted to 0.002 µM. Besides, it took 0.04 µM to reach the 90% level in data set [2] (IC90).

On to `OC1(CCCc2ccc(Cc3nnn[nH]3)cc2)CCN(C[C@H]2CN(CC3CCCCC3)C[C@@H]2c2ccccc2)CC1`, for which, in data set [1], half-maximal inhibition (IC50) was put at 0.001 µM. In data set [2], this compound had an IC90 of 0.1 µM.

What is called IC95 is the concentration needed for an effect of 95%. Read a low IC95 as greater potency. In turn, `OC1(CCCc2ccccc2)CCN(C[C@H]2CN(CC3CCCCC3)C[C@@H]2c2ccccc2)CC1` registered an IC50 in data set [3] of 0.0003 µM. In data set [4], this compound displayed an IC95 of 0.58 µM. Further, the 90% effect level in data set [2] (IC90) was put at 0.2 µM.

As a reminder, the half-life is how long it takes for the measured level to halve. With `OC1(CCCc2ccc(-c3nnn[nH]3)cc2)CCN(C[C@H]2CN(CC3CCCCC3)C[C@@H]2c2ccccc2)CC1`, in data set [5], the clearance worked out at 61 mL/min/kg. In data set [6], this compound gave a half-life of 20 min. Besides, in data set [1], the midpoint of inhibition, the IC50, lay at 0.0002 µM. Besides, it took 0.004 µM to reach the 90% level in data set [2] (IC90).

For the compound `Cn1nnnc1-c1ccc(CCCC2(O)CCN(C[C@H]3CN(CC4CCCCC4)C[C@@H]3c3ccccc3)CC2)cc1`, in data set [1], 0.0002 µM corresponded to half-maximal inhibition (IC50). For the same compound, in data set [2], the IC90 amounted to 0.1 µM.

Consider `OC1(CCCc2ccncc2)CCN(C[C@H]2CN(CC3CCCCC3)C[C@@H]2c2ccccc2)CC1`, for which the IC50 in data set [3] came to 0.012 µM.

`O=C(O)c1ccccc1CCCC1(O)CCN(C[C@H]2CN(CC3CCCCC3)C[C@@H]2c2ccccc2)CC1`: the IC50 in data set [1] is 0.1 µM. In data set [2], the IC90 is greater than 1 µM.

Regarding `C=CCN(C(=O)OCc1ccc([N+](=O)[O-])cc1)C1CCN(C[C@H]2CN(C(=O)c3ccccc3Cl)C[C@@H]2c2ccccc2)CC1`, the IC95 in data set [4] worked out at 0.031 µM. This compound also had an IC90 in data set [2] of 0.001 µM.

In turn, `OC1(CCCc2cccnc2)CCN(C[C@H]2CN(CC3CCCCC3)C[C@@H]2c2ccccc2)CC1` showed a half-inhibitory concentration (IC50) in data set [3] of 0.006 µM. That is a single-digit nanomolar value.

With `O=C(O)c1cccc(CCCC2(O)CCN(C[C@H]3CN(CC4CCCCC4)C[C@@H]3c3ccccc3)CC2)c1`, the IC50 in data set [1] stood at 0.003 µM. The compound also displayed an IC90 in data set [2] greater than 1 µM.

In data set [1], `O=C(O)Cc1ccc(CCCC2(O)CCN(C[C@H]3CN(CC4CCCCC4)C[C@@H]3c3ccccc3)CC2)cc1` showed a 50% inhibitory concentration (IC50) of 0.005 µM. For the same compound, the 90% effect level in data set [2] (IC90) was put at 0.1 µM.

In turn, `O=C(O)c1ccc(CCCC2(O)CCN(C[C@H]3CN(CC4CCCCC4)C[C@@H]3c3ccccc3)CC2)cc1` had a concentration for half-maximal inhibition (IC50) in data set [1] of 0.01 µM. The compound further yielded an IC90 in data set [2] of 1 µM.

`OC1(CCCc2ccccn2)CCN(C[C@H]2CN(CC3CCCCC3)C[C@@H]2c2ccccc2)CC1` showed an IC50 in data set [3] of 0.007 µM.

On to `C[n+]1n[nH]c(-c2ccc(CCCC3(O)CCN(C[C@H]4CN(CC5CCCCC5)C[C@@H]4c4ccccc4)CC3)cc2)n1`, for which the midpoint of inhibition in data set [1], the IC50, lay at 0.0004 µM. Further, in data set [2], the IC90 is greater than 0.3 µM.

In data set [1], `O=C(O)Cc1cccc(CCCC2(O)CCN(C[C@H]3CN(CC4CCCCC4)C[C@@H]3c3ccccc3)CC2)c1` displayed a 50% inhibitory concentration (IC50) of 0.006 µM. The same compound yielded an IC90 in data set [2] of 0.3 µM.

The values are drawn from ChEMBL document CHEMBL1134919, “1,3,4-Trisubstituted pyrrolidine CCR5 receptor antagonists. Part 3: polar functionality and its effect on anti-HIV-1 activity” (Bioorg Med Chem Lett, 2002).
